Test results reported in ChEMBL document CHEMBL1201862, “PubChem BioAssay data set” (2004).
Activity calls are given as the source filed them.

Tests used:
HEK293 = experiment: SAR Analysis of small molecule inhibitors of T-cell specific antigen receptor-induced NF-kB activation in a HEK-293T cell line using a luminescence assay - Set 2. [Related pubchem assays (depositor defined):AID435003, AID435012, AID489026]; format: functional, cell-based; details: Homo sapiens
cells = format: functional, cell-based
Jurkat = experiment: SAR Analysis of small molecule inhibitors of T-cell specific antigen receptor-induced NF-kB activation in a Jurkat cell line using a luminescence assay - Set 2. [Related pubchem assays (depositor defined):AID435003, AID435012, AID465]; format: functional, cell-based; details: Homo sapiens
[1] = biological target: T1, Serine/threonine-protein phosphatase (Candida dubliniensis (strain CD36 / CBS 7987 / NCPF 3949 / NRRLY-17841) (Yeast), UniProt B9W6M3); experiment: calcineurin pathway inhibitors in yeast reporter, dose response, S. cerevisiae, CDRE-lacZ, luminescence, secondary (AID 2388); format: functional, cell-based;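 also: yeast reporter cells carrying a calcineurin-responsive lacZ construct stimulated with calcium chloride; luminescent beta-galactosidase reporter signal in whole cells rather than isolated phosphatase activity; potency for inhibition where a drop in reporter signal means calcineurin blockade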
T1 sequence (B9W6M3 whole entry): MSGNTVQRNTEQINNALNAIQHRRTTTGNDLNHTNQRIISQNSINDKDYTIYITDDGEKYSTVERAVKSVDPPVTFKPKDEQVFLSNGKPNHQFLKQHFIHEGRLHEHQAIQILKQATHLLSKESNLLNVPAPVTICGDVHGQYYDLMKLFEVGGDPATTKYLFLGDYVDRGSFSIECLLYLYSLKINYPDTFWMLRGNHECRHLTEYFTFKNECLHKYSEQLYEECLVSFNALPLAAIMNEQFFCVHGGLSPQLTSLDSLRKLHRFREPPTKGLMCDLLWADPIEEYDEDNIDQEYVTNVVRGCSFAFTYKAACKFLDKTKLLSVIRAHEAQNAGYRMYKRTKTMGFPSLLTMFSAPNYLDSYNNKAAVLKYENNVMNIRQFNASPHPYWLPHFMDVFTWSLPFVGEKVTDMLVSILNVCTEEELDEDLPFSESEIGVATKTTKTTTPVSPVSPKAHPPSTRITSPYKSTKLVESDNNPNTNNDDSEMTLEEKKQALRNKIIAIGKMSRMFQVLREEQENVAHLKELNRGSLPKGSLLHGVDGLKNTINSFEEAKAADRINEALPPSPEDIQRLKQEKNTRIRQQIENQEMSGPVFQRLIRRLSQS

INS1 = experiment: beta cell apoptosis inhibitors, cytokine rescue, dose response, luminescence, retest (AID 449756); format: functional, cell-based; details: Rattus norvegicus;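 also: cell death triggered by IL-1 beta plus TNF-alpha plus IFN-gamma mixture; protective hits raise ATP signal compared with cytokine alone wells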
Hexokinase-1 = Hexokinase-1 (Homo sapiens, UniProt P19367); experiment: hexokinase 1 activators, dose response, selectivity assay for HKDC1 activator project, biochemical (AID 504762); format: functional
Sequence of Hexokinase-1 (P19367 whole entry): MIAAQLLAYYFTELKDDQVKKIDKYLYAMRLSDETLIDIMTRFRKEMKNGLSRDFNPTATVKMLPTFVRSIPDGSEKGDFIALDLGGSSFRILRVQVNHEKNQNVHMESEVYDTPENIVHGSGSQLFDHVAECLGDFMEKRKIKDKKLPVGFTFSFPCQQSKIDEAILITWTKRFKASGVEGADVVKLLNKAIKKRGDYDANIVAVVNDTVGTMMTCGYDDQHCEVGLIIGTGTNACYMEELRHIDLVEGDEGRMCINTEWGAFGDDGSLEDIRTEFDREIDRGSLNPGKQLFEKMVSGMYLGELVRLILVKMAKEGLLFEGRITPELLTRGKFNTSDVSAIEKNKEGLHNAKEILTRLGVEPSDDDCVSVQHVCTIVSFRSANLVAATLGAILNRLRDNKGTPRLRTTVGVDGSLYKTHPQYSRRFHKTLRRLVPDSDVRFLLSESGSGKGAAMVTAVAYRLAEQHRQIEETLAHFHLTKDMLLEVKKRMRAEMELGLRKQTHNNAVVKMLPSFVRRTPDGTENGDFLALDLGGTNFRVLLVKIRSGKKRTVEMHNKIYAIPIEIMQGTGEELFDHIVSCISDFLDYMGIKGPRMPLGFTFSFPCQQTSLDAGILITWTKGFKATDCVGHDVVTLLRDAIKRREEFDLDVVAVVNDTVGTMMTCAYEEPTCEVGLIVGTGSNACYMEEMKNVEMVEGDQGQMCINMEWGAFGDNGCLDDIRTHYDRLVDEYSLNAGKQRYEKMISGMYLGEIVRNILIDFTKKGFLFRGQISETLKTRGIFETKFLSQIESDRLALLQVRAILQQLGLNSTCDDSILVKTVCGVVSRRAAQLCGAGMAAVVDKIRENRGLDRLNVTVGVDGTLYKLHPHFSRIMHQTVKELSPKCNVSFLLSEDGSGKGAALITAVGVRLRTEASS

Hexokinase HKDC1 = Hexokinase HKDC1 (Homo sapiens, UniProt Q2TB90); experiment: HKDC1 hexokinase activators, dose response, biochemical, W721R variant (AID 504730); format: functional
Sequence of Hexokinase HKDC1 (Q2TB90 whole entry): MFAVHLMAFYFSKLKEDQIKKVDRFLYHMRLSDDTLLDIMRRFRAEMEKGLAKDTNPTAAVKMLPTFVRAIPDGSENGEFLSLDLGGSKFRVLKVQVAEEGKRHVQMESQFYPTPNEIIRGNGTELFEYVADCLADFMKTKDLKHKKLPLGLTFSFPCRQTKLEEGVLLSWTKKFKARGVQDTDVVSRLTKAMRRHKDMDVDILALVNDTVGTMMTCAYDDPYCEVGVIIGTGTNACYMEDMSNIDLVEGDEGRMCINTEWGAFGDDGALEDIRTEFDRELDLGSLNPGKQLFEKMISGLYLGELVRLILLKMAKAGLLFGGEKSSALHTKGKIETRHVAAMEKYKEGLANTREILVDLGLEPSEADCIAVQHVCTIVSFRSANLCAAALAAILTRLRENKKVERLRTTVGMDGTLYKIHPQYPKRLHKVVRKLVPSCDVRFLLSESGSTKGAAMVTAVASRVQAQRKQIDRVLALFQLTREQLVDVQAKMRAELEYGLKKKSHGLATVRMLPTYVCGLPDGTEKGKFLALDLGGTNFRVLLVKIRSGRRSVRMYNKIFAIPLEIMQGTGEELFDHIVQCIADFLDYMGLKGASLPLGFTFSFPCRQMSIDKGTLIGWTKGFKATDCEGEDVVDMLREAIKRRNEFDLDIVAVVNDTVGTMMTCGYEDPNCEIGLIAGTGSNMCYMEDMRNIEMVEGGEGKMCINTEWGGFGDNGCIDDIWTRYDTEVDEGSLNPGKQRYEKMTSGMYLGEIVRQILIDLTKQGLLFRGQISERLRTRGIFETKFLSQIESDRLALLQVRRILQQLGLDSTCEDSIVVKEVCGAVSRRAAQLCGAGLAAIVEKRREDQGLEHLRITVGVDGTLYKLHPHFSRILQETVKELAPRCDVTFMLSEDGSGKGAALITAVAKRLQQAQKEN

[2] = cytotoxicity in HEK-293T cells, dose response, cytotoxicity control for TCR NF-kB inhibitor project, luminescence, T-cell screen hits (AID 489026); format: functional, cell-based;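 also: cells exposed to compound about 14 hours before the viability readout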
[3] = control 3'UTR Renilla luciferase suppression, dose response, counter-screen for Shn3 inhibitor project, cell-based, Clone20-Shn3RL, cherry-picked (AID 624133); format: functional
BJ = experiment: cytotoxicity toward BJ-TERT fibroblasts, dose response, cell-based, RAS-independent, luminescence (AID 1933); format: functional; details: Homo sapiens
[4] = Counterscreen for AddAB inhibitors: absorbance-based bacterial cell-based high throughput dose response assay for inhibitors of bacterial viability. [Related pubchem assays (depositor defined):AID435030, AID449728, AID449731, AID488942, AID488955, AID488956]; format: functional
[5] = biological target: ATP-dependent molecular chaperone HSP82 (Candida albicans (strain WO-1) (Yeast), UniProt C4YTQ8); experiment: loss of DOC-induced GRE-beta-galactosidase reporter signal, dose response, Hsp90 inhibitor project, S. cerevisiae, luminescence (AID 2400); format: functional, cell-based;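 also: beta-galactosidase luminescence from glucocorticoid response element reporter as proxy for Hsp90 function; inhibitor potency where signal loss means Hsp90 inhibition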
Sequence of ATP-dependent molecular chaperone HSP82 (C4YTQ8 whole entry): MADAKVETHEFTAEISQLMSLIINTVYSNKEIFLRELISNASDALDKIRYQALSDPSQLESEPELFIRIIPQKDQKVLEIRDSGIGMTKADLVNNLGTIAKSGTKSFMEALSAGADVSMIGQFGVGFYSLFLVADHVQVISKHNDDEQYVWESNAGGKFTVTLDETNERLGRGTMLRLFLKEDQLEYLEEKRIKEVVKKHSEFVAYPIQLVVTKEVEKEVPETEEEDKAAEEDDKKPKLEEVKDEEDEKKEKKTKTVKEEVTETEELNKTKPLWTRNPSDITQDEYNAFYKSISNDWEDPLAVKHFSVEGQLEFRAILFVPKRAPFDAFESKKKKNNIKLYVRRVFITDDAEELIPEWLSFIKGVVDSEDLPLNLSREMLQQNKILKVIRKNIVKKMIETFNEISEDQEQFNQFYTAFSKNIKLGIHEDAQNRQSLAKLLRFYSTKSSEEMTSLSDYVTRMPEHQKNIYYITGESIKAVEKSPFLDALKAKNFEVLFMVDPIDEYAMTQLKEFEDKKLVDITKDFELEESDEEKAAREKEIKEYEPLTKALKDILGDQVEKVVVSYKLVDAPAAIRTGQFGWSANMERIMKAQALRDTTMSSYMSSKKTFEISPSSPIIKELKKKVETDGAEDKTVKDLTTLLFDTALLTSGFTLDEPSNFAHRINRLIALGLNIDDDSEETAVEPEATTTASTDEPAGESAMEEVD

[6] = biological target: T2, Sentrin-specific protease 7 (Homo sapiens, UniProt Q9BQF6); format: functional;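 also: Luminescence-based dose-response confirmation of ultra-high-throughput screening hits, measuring inhibition of SENP7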
T2 sequence (Q9BQF6 whole entry): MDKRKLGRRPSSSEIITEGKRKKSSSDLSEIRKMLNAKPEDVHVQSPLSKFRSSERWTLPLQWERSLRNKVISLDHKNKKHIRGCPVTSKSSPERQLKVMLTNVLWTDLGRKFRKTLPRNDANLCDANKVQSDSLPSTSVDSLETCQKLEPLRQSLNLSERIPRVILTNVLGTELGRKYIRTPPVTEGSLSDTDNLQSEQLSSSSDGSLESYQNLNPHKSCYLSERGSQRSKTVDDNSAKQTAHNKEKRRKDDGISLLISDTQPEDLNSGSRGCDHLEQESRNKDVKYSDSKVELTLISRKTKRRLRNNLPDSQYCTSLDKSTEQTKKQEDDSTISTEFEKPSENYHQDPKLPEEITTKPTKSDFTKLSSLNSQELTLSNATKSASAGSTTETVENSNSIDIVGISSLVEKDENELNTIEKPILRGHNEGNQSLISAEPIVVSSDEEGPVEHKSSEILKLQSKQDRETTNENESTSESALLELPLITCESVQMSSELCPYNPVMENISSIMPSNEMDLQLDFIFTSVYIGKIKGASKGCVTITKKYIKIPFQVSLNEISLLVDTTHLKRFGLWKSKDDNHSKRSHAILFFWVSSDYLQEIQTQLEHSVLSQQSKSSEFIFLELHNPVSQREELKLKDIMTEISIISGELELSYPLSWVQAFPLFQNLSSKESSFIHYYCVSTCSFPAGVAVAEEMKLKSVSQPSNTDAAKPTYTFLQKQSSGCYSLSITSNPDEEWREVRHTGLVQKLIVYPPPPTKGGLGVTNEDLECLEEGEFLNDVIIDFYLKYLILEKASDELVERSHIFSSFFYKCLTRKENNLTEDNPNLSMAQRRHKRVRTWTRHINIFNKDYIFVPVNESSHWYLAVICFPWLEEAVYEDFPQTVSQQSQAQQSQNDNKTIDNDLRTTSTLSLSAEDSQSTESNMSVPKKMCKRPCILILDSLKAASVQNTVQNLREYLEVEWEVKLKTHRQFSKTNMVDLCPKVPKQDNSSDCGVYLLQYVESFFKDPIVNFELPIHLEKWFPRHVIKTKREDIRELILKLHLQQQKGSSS

[7] = biological target: T3, COUP transcription factor 2 (Homo sapiens, UniProt P24468); experiment: Luminescence-based cell-based high throughput dose response assay to identify inhibitors of COUP-TFII (NR2F2).; format: functional;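 also: HEK293 cells transiently cotransfected with COUP-TFII expression vector and reporter; luciferase reporter luminescence driven by COUP-TFII from the pX2-168 reporter plasmid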
T3 sequence (P24468 whole entry): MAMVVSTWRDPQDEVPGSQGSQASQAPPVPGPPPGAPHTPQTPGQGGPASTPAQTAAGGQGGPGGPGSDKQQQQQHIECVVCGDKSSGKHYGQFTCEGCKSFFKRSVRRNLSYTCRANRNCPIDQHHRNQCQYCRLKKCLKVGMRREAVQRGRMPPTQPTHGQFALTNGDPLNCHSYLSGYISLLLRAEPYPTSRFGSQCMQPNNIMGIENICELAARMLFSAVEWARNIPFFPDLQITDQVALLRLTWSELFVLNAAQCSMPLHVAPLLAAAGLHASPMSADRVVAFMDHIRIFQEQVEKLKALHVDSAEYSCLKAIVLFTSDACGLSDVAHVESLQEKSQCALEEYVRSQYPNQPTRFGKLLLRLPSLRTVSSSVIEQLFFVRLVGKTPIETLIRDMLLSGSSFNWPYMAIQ

SMILES	IC50 (HEK293)	EC50 (cells)	IC50 (Jurkat)	EC50 [1]	AC50 (INS1)	EC50 (Hexokinase-1)	EC50 (Hexokinase HKDC1)	IC50 [2]	AC50 [3]	EC50 (BJ)	IC50 [4]	EC50 [5]	IC50 [6]	IC50 [7]
CCCCC(=O)NC(c1ccc(N(CC)CC)cc1)c1ccc2cccnc2c1O (centres undefined)	13 µM (active)	> 350 µM (not active)	3.12 µM (active)	> 180 µM (inactive)	0.38 µM (active)	> 80 µM (inactive)	13.3 µM (active)	> 80 µM (inactive)	0.635 µM (active)	0.717 µM (active)	> 119 µM (inactive)	> 150 µM (inactive)	–	–
CCOc1cccc(/C=N/NC(=S)Nc2ccccc2[N+](=O)[O-])c1O	–	–	–	–	–	–	–	–	–	–	–	–	2.65 µM (active)	5.05 µM (active)
